{"source": "patent US20240301409A1", "about": "“Chemically Modified Small Activating RNA” (RACTIGEN THERAPEUTICS, priority 2021, published 2024)", "test_system": "p21 gene", "assay": "p21 mRNA expression by RT-qPCR in T24 cells", "type": "cell-based, human", "conditions": "10 nM", "procedure": "Ku-7-LG and T24 cells were transfected with the indicated saRNA at a final concentration of 10 nM for 3 days. After transfection, the RNA was extracted with the Qiagen RNeasy kit. After reverse transcription, the ABI 7500 fast real-time PCR system was used for qPCR amplification. The GAPDH gene was amplified as an internal reference. […] Dashed line indicates duplex Rag1-40 with no chemical modification in comparison, and the values above the line indicate stronger activity. The control was blank transfection without oligonucleotide. dsCon2 is transfected with a double-stranded scramble RNA. The value of the ordinate represents the mean±SD of 2 repeated treatments.\nThe control and dsCon2 were blank transfection and scramble dsRNA transfection, respectively. The values in the ordinate represent the mean±SD of 2 repeated treatments.\nHuman bladder cancer cells Ku-7-LG (ATCC), J82 (ATCC) and T24 (ATCC) were cultured in McCoy medium (Gibco) comprising 10% calf serum (Sigma-Aldrich) and 1% penicillin/Streptomycin (Gibco). Cells were cultured at 37° C. under 5% CO2. Ku-7-LG, J82 and T24 cells were plated into 12-well plates at 10×10^4 cells per well, transfected with the small RNA at a concentration of 10 nM (unless otherwise specified) for three days, using RNAiMax (Invitrogen, Carlsbad, CA) according to the manufacturer's instructions. Two replicate wells were set for each treatment.\nAfter transfection, the medium was discarded and to each well 500 μl cell lysate was added and incubated at room temperature for 5 minutes. RNA was extracted with the Qiagen RNeasy kit, and after reverse transcription, qPCR analysis was performed on the ABI 7500 Fast Real-time PCR system (Applied Biosystems). Each sample was amplified in 3 replicate wells.\nThe PCR reaction conditions are: 95° C. for 30 seconds, 95° C. for 5 seconds, 60° C. for 30 seconds, and 40 cycles of amplification. The GAPDH gene was amplified as an internal reference at the same time. p21 was amplified with the p21F1/R1 primer pair, and the specific sequences of the amplification primers are shown in Table 1.\nIn order to calculate the expression value (Erel) of p21 (target gene) of a saRNA transfection sample relative to the control treatment, Formula 1 is used to input the Ct values of the target gene and the internal reference gene for calculation.\nwherein, CtTm is the Ct value of the target gene from the control treatment sample; CtTs is the Ct value of the target gene from the saRNA treated sample; CtRm is the Ct value of the internal reference gene from the control treatment sample; and CtRs is the Ct value of the internal reference gene from the saRNA treated sample.\nThe main purpose of introducing chemical modifications to regulatory oligonucleotides of a gene is to improve their pharmaceutical properties, including enhancing in vivo stability and mitigating off-target effects (e.g., sequence-dependent targeting of unrelated genes, sequence-dependent or independent immune stimulation), while maintaining their gene regulatory capacity (gene knockdown or activation). To assess the effect of chemical modification on the RNAa activity of saRNA on the p21 gene, 10 nM unmodified (Rag1-40) and modified (Rag1-40-1 to Rag1-40-34) duplexes were transfected into Ku-7-LG and T24 cells, respectively. After 72 hours, the mRNA expression level of p21 was assessed by RT-qPCR. All duplexes induced p21 mRNA expression in all […] at least double that of the control.\nIn order to further evaluate the expression level of p21 mRNA after the different durations of treatment by the chemically modified saRNA duplexes, two saRNAs (RAG1-40-31 and RAG1-40-53) were randomly selected from the above chemically modified saRNA duplexes for detection. RAG1-40-31 and RAG1-40-53 were transfected into Ku-7-LG and T24 cells at a final concentration of 10 nM, for 1, 2, 3, 4, 7 and 9 days, respectively. Each treatment was set up in duplicate. […]", "data": [{"substance": "RAG1-40-31: saRNA duplex: sense fCfCAACUCAUUCUCCAAG*U*C (SEQ ID NO 16); antisense U*A*fCfUfUGGAGAAfUGAGfUfUGG*fC*A (SEQ ID NO 12) (sense CCAACUCAUUCUCCAAGUC; antisense UACUUGGAGAAUGAGUUGGCA; 2'-F and phosphorothioate modifications; modified_base (1)..(2) (1,2)=2′-fluoro; modified_base (17)..(19) (17,18,19)=phosphorothioate (PS) backbone modification; modified_base (2)..(21) (2,3,19,20,21)=phosphorothioate (PS) backbone modification; modified_base (3)..(20) (3,4,5,12,16,17,20)=2′-fluoro)", "values": [{"measurement": "increase of expression level of p21 mRNA compared with the control group", "setting": "1 day", "value": 2.1, "unit": "fold"}, {"measurement": "increase of expression level of p21 mRNA compared with the control group", "setting": "2 days", "value": 3.7, "unit": "fold"}, {"measurement": "increase of expression level of p21 mRNA compared with the control group", "setting": "3 days", "value": 4.7, "unit": "fold"}, {"measurement": "RNA activation activity (p21 mRNA), in words", "setting": "72 hours, compared with unmodified Rag1-40 unless worded otherwise", "value": "reduced activity"}, {"measurement": "increase of expression level of p21 mRNA compared with the control group", "setting": "4 days", "value": 3.3, "unit": "fold"}, {"measurement": "increase of expression level of p21 mRNA compared with the control group", "setting": "7 days", "value": 1.2, "unit": "fold"}, {"measurement": "increase of expression level of p21 mRNA compared with the control group", "setting": "9 days", "value": 1.3, "unit": "fold"}]}]}
